The structures appear in SMILES notation. Values after ≈ are worked out from the molar mass of the structure shown. Where two headings read alike, the source gives them in different places. Where only a bound is given, the exact number is not on record here.

A short description of one series: Aqueous solubility. The format is physicochemical. The following applies: McIlvaine buffer pH 6.8, 2.5% DMSO, 24 h shaking; for solubility at 24 h: McIlvaine buffer pH 6.8 with 2.5% DMSO, pH 6.8, aqueous buffer, kinetic from dmso stock. How it is done: Assay for Determination of Aqueous Solubility […] After 24 h of shaking, the solutions or suspensions are filtered and analyzed by LC-UV. The amount dissolved in buffer is compared to the amount dissolved in the acetonitrile/water (1/1) solution.

Series [1] in a line: Drug transport across human Caco-2 cells. As to conditions: human; for Papp A→B at 10 µM / Papp B→A at 10 µM: Caco-2, pH 7.2, Caco-2 monolayers, pH 7.2, 37° C.; for Papp A→B at 10 µM: apical-to-basal, read-out: PEAB; for Papp B→A at 10 µM: basal-to-apical, read-out: PEBA. The format is in vitro ADME. In general terms: Caco-2 monolayers are a common model of the intestinal barrier.
Description: Assay for Determination of Drug Transport Across Human Caco-2 Cells The assay provides information on the potential of a compound to pass the cell membrane, on the extent of oral absorption as well as on whether the compound is actively transported by uptake and/or efflux transporters. […] The compounds are assigned to permeability/absorption classes by comparison of the AB permeabilities with the AB permeabilities of reference compounds with known in vitro permeability and oral absorption in the human. Identical or similar permeabilities in both transport directions indicate passive permeation, vectorial permeability points to additional active transport mechanisms. […] Active transport is concentration-dependently saturable. Caco-2 cells (1-2*10^5 cells/cm^2 area) are seeded on filter inserts (Costar transwell polycarbonate or PET filters, 0.4 nm pore size) and cultured (DMEM) for 10 to 25 days. […] The transport solution (TL) is applied ici to the apical or basolateral donor side for measuring A-B or B-A permeability (3 filter replicates), respectively. The receiver side contains HTP-4 buffer supplemented with 2% BSA. […] Sampled receiver volumes are replaced with fresh receiver solution.

Series [2] is described as follows: Metabolic stability with human liver microsomes. The format is in vitro ADME. The following applies: for half-life at 1 μM: pH 7.6. For orientation: Microsomes from liver hold many membrane-bound enzymes, among them those of drug oxidation.
Series [3] addresses Human neutrophil elastase (Homo sapiens (Human), UniProt P08246). The experiment in a line: Human Neutrophil Elastase Assay. The format is biochemical. As to conditions: human neutrophil elastase, substrate MeOSuc-Ala-Ala-Pro-Val-AMC 250 μM, pH 7.5; read-out: IC50.
Where [4] appears, read: pooled human liver microsomes, 1 mg/ml protein, 1 μM test compound, 37° C., NADPH.

Chain of Human neutrophil elastase (P08246 30-247): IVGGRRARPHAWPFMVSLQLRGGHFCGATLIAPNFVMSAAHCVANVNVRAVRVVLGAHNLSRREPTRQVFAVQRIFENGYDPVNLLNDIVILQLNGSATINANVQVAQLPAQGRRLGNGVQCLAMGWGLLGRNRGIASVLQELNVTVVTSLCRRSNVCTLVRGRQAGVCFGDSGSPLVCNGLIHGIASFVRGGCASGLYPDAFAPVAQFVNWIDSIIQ

Consider `CN1C(=O)N(c2cccc(C(F)(F)F)c2)C2=C(C(=O)CC2)[C@H]1c1ccc(C#N)cc1` [Example 2A, (R)-4-(3-Methyl-2,5-dioxo-1-(3-(trifluoromethyl)phenyl)-2,3,4,5,6,7-hexahydro-1H-cyclopenta[d]pyrimidin-4-yl)benzonitrile], for which the concentration in solution in the series “Aqueous solubility” (solubility at 24 h) was 70 µg/mL (≈ 170 µM). In series [1], the Papp A→B at 10 µM was determined as 87 ×10⁻⁶ cm/s and the Papp B→A at 10 µM amounted to 69 ×10⁻⁶ cm/s. As for `CN(C)CCNC(=O)N1C(=O)N(c2cccc(C(F)(F)F)c2)C2=C(C(=O)CC2)C1c1ccc(C#N)cc1` (stereo not shown) [Example 7.5], in the series “Aqueous solubility”, the Aqueous solubility came to 104 µg/mL. In “Aqueous solubility”, `C[S+]([O-])CCNC(=O)N1C(=O)N(c2cccc(C(F)(F)F)c2)C2=C(C(=O)CC2)C1c1ccc(C#N)cc1` (stereo not shown) [Example 7.6] returned an Aqueous solubility of 94 µg/mL. Moreover, in series [2] (setting [4]), the “t1/2 INVITRO” value was more than 2.17 h. In the case of `CN1CC(NC(=O)N2C(=O)N(c3cccc(C(F)(F)F)c3)C3=C(C(=O)CC3)C2c2ccc(C#N)cc2)CC1=O` (stereo not shown) [Example 7.9], the Aqueous solubility in the series “Aqueous solubility” is 106 µg/mL. `CS(=O)(=O)c1cc(C#N)ccc1C1NC(=O)N(c2ccnc(C(F)(F)F)c2)C2=C1C(=O)CC2` (stereo not shown) [Example 15.6, 4-(2,5-dioxo-1-(2-(trifluoromethyl)pyridin-4-yl)-2,3,4,5,6,7-hexahydro-1H-cyclopenta[d]-pyrimidin-4-yl)-3-(methylsulfonyl)benzonitrile]: the IC50 in series [3] turned out to be 43.6 nM. In the series “Aqueous solubility”, this molecule had a solubility at 24 h of 76 µg/mL (≈ 160 µM). Besides, the half-life at 1 μM in series [2] (human, microsomes) was more than 2.17 h. `CS(=O)(=O)c1cc(C#N)ccc1C1C2=C(CCC2=O)N(c2cccc(C(F)(F)F)c2)C(=O)N1CC(=O)N1CC2CC2C1` (stereo not shown) [Example 22.4]: in series [2] (setting [4]), the “t1/2 INVITRO” value was more than 2.17 h.

In the series “Aqueous solubility”, `CS(=O)(=O)c1cc(C#N)ccc1C1C2=C(CCC2=O)N(c2cccc(C(F)(F)F)c2)C(=O)N1CCCO` (stereo not shown) [Example 24.1] returned an Aqueous solubility of 64 µg/mL. The “t1/2 INVITRO” value in series [2] (setting [4]) worked out at 1.67 h. In turn, `CN1C(=O)N(c2ccnc(C(F)(F)F)c2)C2=C(C(=O)CC2)C1c1ccc(C#N)cc1S(C)(=O)=O` (stereo not shown) [Example 29, 4-(3-Methyl-2,5-dioxo-1-(2-(trifluoromethyl)pyridin-4-yl)-2,3,4,5,6,7-hexahydro-1H-cyclopenta[d]pyrimidin-4-yl)-3-(methylsulfonyl)benzonitrile] displayed a solubility at 24 h in “Aqueous solubility” of 79 µg/mL (≈ 161 µM). Moreover, in series [2] (pooled human liver microsomes, 1 mg/ml protein, 1 μM test compound, 37° C., NADPH, read-out: t1/2 INVITRO), the half-life at 1 μM was more than 2.17 h. Also, in series [1], the Papp A→B at 10 µM came to 11.8 ×10⁻⁶ cm/s and the Papp B→A at 10 µM worked out at 66.2 ×10⁻⁶ cm/s. Regarding `CCS(=O)(=O)c1cc(C#N)ccc1C1C2=C(CCC2=O)N(c2cccc(C(F)(F)F)c2)C(=O)N1S(C)(=O)=O` (stereo not shown) [Example 37.4], the IC50 in series [3] was found to be 1.7 nM. The same molecule returned a solubility at 24 h in “Aqueous solubility” of 21 µg/mL (≈ 37 µM). The same molecule showed a half-life at 1 μM in series [2] (human, microsomes) of more than 2.17 h. In “Aqueous solubility”, `N#Cc1ccc(C2C3=C(CCC3=O)N(c3cccc(C(F)(F)F)c3)C(=O)N2C(=O)N[C@@H]2CCC[C@H]2O)cc1` (stereo partly shown) [Example 42.3] returned a solubility at 24 h of 20 µg/mL (≈ 38.1 µM). Moreover, in series [2] (human, microsomes), the half-life at 1 μM was more than 2.17 h. Also, in series [1], the Papp A→B at 10 µM was found to be 36.2 ×10⁻⁶ cm/s and the Papp B→A at 10 µM was found to be 86 ×10⁻⁶ cm/s. In addition, the efflux ratio at 10 μM in series [1] (Caco-2, pH 7.2, PEBA/PEAB, Caco-2) amounted to 2.4. Consider `N#Cc1ccc([C@@H]2C3=C(CCC3=O)N(c3cccc(C(F)(F)F)c3)C(=O)N2C(=O)NC2CCS(=O)(=O)CC2)cc1` [Example 46, (R)-4-(4-Cyanophenyl)-2,5-dioxo-N-(1,1-dioxo-hexahydro-1λ^6-thiopyran-4-yl)-1-(3-(trifluoromethyl)phenyl)-4,5,6,7-tetrahydro-1H-cyclopenta[d]pyrimidine-3(2H)-carboxamide], for which the Aqueous solubility in “Aqueous solubility” worked out at 10 µg/mL. Further, the “t1/2 INVITRO” value in series [2] (setting [4]) is more than 2.17 h. Take `CS(=O)(=O)c1cc(C#N)ccc1[C@@H]1C2=C(CCC2=O)N(c2cccc(C(F)(F)F)c2)C(=O)N1C(=O)NC1CCOCC1` [Example 47.15]: in series [3], the half-maximal inhibitory concentration (IC50) was less than 1 nM. Same read-out and setting: the result for `CS(=O)(=O)c1cc(C#N)ccc1[C@@H]1C2=C(CCC2=O)N(c2cccc(C(F)(F)F)c2)C(=O)N1C(=O)NCC1CC(O)C1` (stereo partly shown) [Example 47.16] reads less than 1 nM; that for `CS(=O)(=O)c1cc(C#N)ccc1[C@@H]1C2=C(CCC2=O)N(c2cccc(C(F)(F)F)c2)C(=O)N1C(=O)NCC1(O)CCC1` [Example 47.17], less than 1 nM. Regarding `CS(=O)(=O)c1cc(C#N)ccc1[C@@H]1C2=C(CCC2=O)N(c2cccc(C(F)(F)F)c2)C(=O)N1C(=O)N[C@H]1CCCC[C@@H]1O` [Example 47.21], in series [3], the IC50 is less than 1 nM. As for `CS(=O)(=O)c1cc(C#N)ccc1[C@@H]1C2=C(CCC2=O)N(c2cccc(C(F)(F)F)c2)C(=O)N1C(=O)NC1C2CC1C2` (stereo partly shown) [Example 48.2], in series [3], the IC50 is less than 1 nM. For `CS(=O)(=O)c1cc(C#N)ccc1[C@@H]1C2=C(CCC2=O)N(c2cccc(C(F)(F)F)c2)C(=O)N1C(=O)N[C@H]1CC[C@H](O)C1` [Example 48.4], the IC50 in series [3] was less than 1 nM. Take `CNC(=O)N1C(=O)N(c2cccc(C(F)(F)F)c2)C2=C(C(=O)CC2)C1c1ccc(C#N)cc1F` (stereo not shown) [Example 49, 4-(4-Cyano-2-fluorophenyl)-N-methyl-2,5-dioxo-1-(3-(trifluoromethyl)phenyl)-4,5,6,7-tetrahydro-1H-cyclopenta[d]pyrimidine-3(2H)-carboxamide]: the concentration for half-maximal inhibition (IC50) in series [3] is 1.8 nM. With `CCNC(=O)N1C(=O)N(c2cccc(C(F)(F)F)c2)C2=C(C(=O)CC2)C1c1ccc(C#N)cc1F` (stereo not shown) [Example 49.1], in series [3], the concentration for half-maximal inhibition (IC50) is 1.2 nM. For `COCCNC(=O)N1C(=O)N(c2cccc(C(F)(F)F)c2)C2=C(C(=O)CC2)C1c1ccc(C#N)cc1F` (stereo not shown) [Example 49.2], the concentration for half-maximal inhibition (IC50) in series [3] is 1.3 nM. For `CNC(=O)N1C(=O)N(c2cccc(C(F)(F)F)c2)C2=C(C(=O)CC2)[C@@H]1c1ccc(C#N)cc1F` [Example 49B, (R)-4-(4-Cyano-2-fluorophenyl)-N-methyl-2,5-dioxo-1-(3-(trifluoromethyl)phenyl)-4,5,6,7-tetrahydro-1H-cyclopenta[d]pyrimidine-3(2H)-carboxamide], the IC50 in series [3] was found to be 173 nM.

With `CNC(=O)N1C(=O)N(c2cccc(C(F)(F)F)c2)C2=C(C(=O)CC2)C1c1ccc(C#N)cc1C` (stereo not shown) [Example 50.2], the half-maximal inhibitory concentration (IC50) in series [3] is less than 1 nM. On to `CNC(=O)N1C(=O)N(c2cccc(C(F)(F)F)c2)C2=C(C(=O)CC2)C1c1ccc(C#N)cc1OC` (stereo not shown) [Example 50.3], for which, in series [2] (human, microsomes), the half-life at 1 μM was more than 2.17 h. Moreover, in series [1], the Papp A→B at 10 µM was 72.4 ×10⁻⁶ cm/s and the Papp B→A at 10 µM was 68.1 ×10⁻⁶ cm/s.

In the case of `CNC(=O)N1C(=O)N(c2cccc(C(F)(F)F)c2)C2=C(C(=O)CC2)C1c1ccc(C#N)cc1Cl` (stereo not shown) [Example 50.4], the IC50 in series [3] came to 1.2 nM. On the same count and under the same terms, the result for `CNC(=O)N1C(=O)N(c2cccc(C(F)(F)F)c2)C2=C(C(=O)CC2)C1c1ccc(C#N)cc1[S+](C)[O-]` (stereo not shown) [Example 50.5] reads less than 1 nM. Regarding `CNC(=O)N1C(=O)N(c2cccc(C(F)(F)F)c2)C2=C(C(=O)CC2)C1c1ccc(C#N)cc1Br` (stereo not shown) [Example 50.6], in series [3], the half-inhibitory concentration (IC50) was determined as 1.2 nM. In the case of `CCS(=O)(=O)c1cc(C#N)ccc1C1C2=C(CCC2=O)N(c2cccc(C(F)(F)F)c2)C(=O)N1C(=O)NC` (stereo not shown) [Example 50.7], in series [3], the IC50 is less than 1 nM. On the same count and under the same terms, to `CCNC(=O)N1C(=O)N(c2cccc(C(F)(F)F)c2)C2=C(C(=O)CC2)C1c1ccc(C#N)cc1Cl` (stereo not shown) [Example 51.2] belongs less than 1 nM; to `CCNC(=O)N1C(=O)N(c2cccc(C(F)(F)F)c2)C2=C(C(=O)CC2)C1c1ccc(C#N)cc1S(=O)(=O)CC` (stereo not shown) [Example 51.3], less than 1 nM; to `CCNC(=O)N1C(=O)N(c2cccc(C(F)(F)F)c2)C2=C(C(=O)CC2)C1c1ccc(C#N)cc1[S+](C)[O-]` (stereo not shown) [Example 51.4], less than 1 nM. With `N#Cc1ccc(C2C3=C(CCC3=O)N(c3cccc(C(F)F)c3)C(=O)N2C(=O)NCCCO)cc1` (stereo not shown) [Example 52, 4-(4-Cyanophenyl)-1-(3-(difluoromethyl)phenyl)-N-(3-hydroxypropyl)-2,5-dioxo-4,5,6,7-tetrahydro-1H-cyclopenta[d]pyrimidine-3(2H)-carboxamide], in series [3], the IC50 was less than 1 nM. The same measure, in the same setting: to `COCCNC(=O)N1C(=O)N(c2cccc(C(F)F)c2)C2=C(C(=O)CC2)C1c1ccc(C#N)cc1` (stereo not shown) [Example 52.4] belongs less than 1 nM; to `N#Cc1ccc([C@H]2C3=C(CCC3=O)N(c3cccc(C(F)F)c3)C(=O)N2C(=O)NCCCO)cc1` [Example 52B, (S)-4-(4-Cyanophenyl)-1-(3-(difluoromethyl)phenyl)-N-(3-hydroxypropyl)-2,5-dioxo-4,5,6,7-tetrahydro-1H-cyclopenta[d]pyrimidine-3(2H)-carboxamide], 619 nM. The same measure, in the same setting: to `CNC(=O)N1C(=O)N(c2cccc(C(F)F)c2)C2=C(C(=O)CC2)C1c1ccc(C#N)cc1S(C)(=O)=O` (stereo not shown) [Example 53.1] belongs less than 1 nM; to `CCNC(=O)N1C(=O)N(c2cccc(C(F)F)c2)C2=C(C(=O)CC2)C1c1ccc(C#N)cc1S(C)(=O)=O` (stereo not shown) [Example 53.2], less than 1 nM; to `CC(C)(O)CNC(=O)N1C(=O)N(c2cccc(C(F)F)c2)C2=C(C(=O)CC2)C1c1ccc(C#N)cc1S(C)(=O)=O` (stereo not shown) [Example 53.5], less than 1 nM.

Regarding `CS(=O)(=O)N1C(=O)N(c2ccnc(C(F)(F)F)c2)C2=C(C(=O)CC2)C1c1ccc(C#N)cc1` (stereo not shown) [Example 57, 4-(3-(Methylsulfonyl)-2,5-dioxo-1-(2-(trifluoromethyl)pyridin-4-yl)-2,3,4,5,6,7-hexahydro-1H-cyclopenta[d]pyrimidin-4-yl)benzonitrile], the IC50 in series [3] is 34.9 nM.

By solubility is commonly meant the concentration that dissolves in the medium under given conditions. A word on the Aqueous solubility: it is how much of the substance goes into solution per volume. For orientation: IC50 means the concentration that inhibits the measured activity by half. As a reminder, the efflux ratio is the permeability from basolateral to apical divided by that in the opposite direction, in the common usage.
